Results taken from US10295551B2, “Development and use of fluorescent probes of unbound bilirubin” (Alan Marc Kleinfeld, priority 2011, dated 2019).
Positions count from the first letter of the chain named. Where two headings read alike, the source gives them in different places. Blank lines part the entries; values can stand above or below the molecule they belong to.

Tests used:
[1] = target: T1, rI-FABP (SEQ ID NO: 3) variant BL22P1B11, MGI-KR14-14R 18L 25C 27A 38V 60R 73F 106L 115R 117D, SEQ ID NO: 35 (Rattus norvegicus, UniProt P02693, A74F/K101R/K126R/K17R/K21R/K28A/K30R/K38R/K47R/K51R/K89R/K8R/K93R/K95R/L39V/L73A/M19L/Q116R/R107L/V26C/V61R/Y118D/Y15R); assay type: binding
T1 construct: made in house

[2] = target: T2, rI-FABP (SEQ ID NO: 3) variant L119P3E5, 18V 27C 31A 72A 73W (Rattus norvegicus, UniProt P02693, A74W/G32A/K28C/L73A/M19V); assay: fatty acid binding to L119P3E5
T2 construct: 6xHis (C); made in house
From the text: (§1) The major (>75%) FFA species generated from Intralipid® are linoleic, oleic, palmitic and linolenic FFA. Because ADIFAB2 is most specific for stearic acid, for which Intralipid® contains only between 1.5 and 5.5%, FFAu probes with specificity for linoleic, oleic, palmitic and linolenic FFA will provide more accurate and sensitive detection of the rise in plasma FFAu due to Intralipid® hydrolysis. Such FFAu probes have been produced (Table 10) using the methods described in U.S. Pat. No. 7,601,510 and U.S. publication 2010/0298162 and in [Huber A H, Kampf J P, Kwan T, Zhu B and Kleinfeld A M. Fatty acid-specific fluorescent probes and their use in resolving mixtures of different unbound free fatty acids in equilibrium with albumin. Biochemistry 45: 14263-14274, 2006]. Sensitive FFAu probes are necessary for detecting the rise in the patient's FFAu levels, early in the titration of Intralipid®, which is critical for the prevention of unbound bilirubin and FFAu from reaching toxic levels.

[3] = target: rI-FABP (SEQ ID NO: 3) variant L4BP4B9, 73W 74S (Rattus norvegicus, UniProt P02693, A74W/D75S/L73A); assay: fatty acid binding to L4BP4B9
From the text: as §1

[4] = target: T3, rI-FABP (SEQ ID NO: 3) variant L22P5E11, 38R 69T 72A 73K 106A (Rattus norvegicus, UniProt P02693, A70T/A74K/L39R/L73A/R107A); assay: fatty acid binding to L22P5E11
T3 construct: 6xHis (C); made in house
From the text: as §1

[5] = target: T4, rI-FABP (SEQ ID NO: 3) variant L61P8 B12, 8I 14L 18L 23L 27Y 30C 31V 53I 55W 72G 73T 74A 78V 82V 91Y 93M 102V 106W 115W 117L (Rattus norvegicus, UniProt P02693, A74T/D75A/F56W/F94M/G32V/G92Y/I24L/K28Y/L103V/L31C/L73G/L79V/M19L/Q116W/R107W/S54I/V9I/W83V/Y118L/Y15L); assay: fatty acid binding to L61P8B12
T4 construct: 6xHis (C); made in house
From the text: as §1

[6] = target: T5, rI-FABP (SEQ ID NO: 3) variant L138P1H8 N24C, MGI-18L 21L 23Y 24C 31I 55V 72S 73S 74G 76V 117H 128Y (Rattus norvegicus, UniProt P02693, A74S/D75G/F129Y/F56V/G32I/I24Y/L73S/M19L/M22L/N25C/T77V/Y118H); assay: fatty acid binding to L138P1H8N24C
T5 construct: 6xHis (C); made in house
From the text: as §1

[7] = target: T6, rI-FABP (SEQ ID NO: 3) variant ADIFAB2, 72A (Rattus norvegicus, UniProt P02693, L73A); assay: fatty acid binding to ADIFAB2
T6 construct: 6xHis (C)
From the text: as §1

[8] = target: T7, rI-FABP (SEQ ID NO: 3) variant L19CP10C7, MGI-14R 18L 27C 71I 73F 117D (Rattus norvegicus, UniProt P02693, A74F/K28C/L73A/M19L/S72I/Y118D/Y15R); assay: fatty acid binding to L19CP10C7
T7 construct: 6xHis (C); made in house
From the text: as §1

human albumin = target: T8, human albumin (Homo sapiens, UniProt P02768); assay: Bilirubin binding to a single human albumin site (bilirubin spiked plasma); conditions: prediction in good agreement with measured [Bf] in spiked pooled human plasma
T8 construct: Pooled human plasma (Golden West Biologicals) for which [albumin] was 620 μM was spiked with bilirubin; tissue Golden West Biologicals; host or cells: pooled human plasma
Description: Pooled human plasma (Golden West Biologicals) for which [albumin] was 620 μM was spiked with bilirubin to generate plasma samples with bilirubin/albumin ratios from of approximately 0 to 0.9. Measurements of [Bf] were carried out using BL22P1B1-Rh in either a Fluorolog3 (JY Horiba) using 10×10 mm cuvettes or in a FFAu Meter (FFA Sciences) modified for measuring unbound bilirubin by replacing emission filters with ones centered at […]. Measurements of [Bf] were also performed on the same samples using the peroxidase method of Jacobsen and Wennberg [Jacobsen J and Wennberg R P. Determination of unbound bilirubin in the serum of newborns. Clin Chem 20: 783, 1974].

[9] = assay type: binding
[10] = Table 6, lysine labeled probes, Primary Fluor Acrylodan
[11] = Table 6, Primary Fluor Acrylodan
[12] = Table 6, Primary Fluor Biotium CF750 SE
[13] = Table 6, Primary Fluor Kodak X-Sight 670 LSS dye
[14] = Table 6, Primary Fluor LiCor IRDye 680 LT
[15] = Table 6, Primary Fluor LiCor IRDye 700DX

T4 sequence (P02693 with tags, fused parts or gaps with the stated changes): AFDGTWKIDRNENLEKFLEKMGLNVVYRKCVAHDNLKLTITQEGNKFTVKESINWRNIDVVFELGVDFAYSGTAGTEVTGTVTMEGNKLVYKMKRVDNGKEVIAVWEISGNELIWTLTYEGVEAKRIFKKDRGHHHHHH
T3 sequence (P02693 with tags, fused parts or gaps L39R/A70T/L73A/A74K/R107A): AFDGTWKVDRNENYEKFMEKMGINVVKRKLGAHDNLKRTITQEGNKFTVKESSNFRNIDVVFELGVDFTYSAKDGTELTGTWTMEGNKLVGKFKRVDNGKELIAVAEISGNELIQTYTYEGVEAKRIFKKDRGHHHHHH
T6 sequence (P02693 with tags, fused parts or gaps L73A): as the sequence (P02693 with tags, fused parts or gaps L39R/A70T/L73A/A74K/R107A) above, with R38L, T69A, K73A, A106R counted along it
T2 sequence (P02693 with tags, fused parts or gaps M19V/K28C/G32A/L73A/A74W): as the sequence (P02693 with tags, fused parts or gaps L39R/A70T/L73A/A74K/R107A) above, with M18V, K27C, G31A, R38L, T69A, K73W, A106R counted along it
T5 sequence (P02693 with tags, fused parts or gaps with the stated changes): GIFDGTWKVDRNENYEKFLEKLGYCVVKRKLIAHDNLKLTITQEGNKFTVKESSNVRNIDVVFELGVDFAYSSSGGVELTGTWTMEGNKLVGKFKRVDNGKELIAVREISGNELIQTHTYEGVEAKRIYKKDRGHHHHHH
Sequence of rI-FABP (SEQ ID NO: 3) variant L4BP4B9, 73W 74S (P02693 with tags, fused parts or gaps L73A/A74W/D75S): as the sequence (P02693 with tags, fused parts or gaps L39R/A70T/L73A/A74K/R107A) above, with R38L, T69A, K73W, D74S, A106R counted along it
T7 sequence (P02693 with tags, fused parts or gaps Y15R/M19L/K28C/S72I/L73A/A74F/Y118D): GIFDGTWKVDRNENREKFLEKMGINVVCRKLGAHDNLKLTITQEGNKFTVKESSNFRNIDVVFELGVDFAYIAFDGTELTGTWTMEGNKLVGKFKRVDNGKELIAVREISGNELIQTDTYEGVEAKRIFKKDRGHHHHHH
T1 sequence (P02693 with tags, fused parts or gaps with the stated changes): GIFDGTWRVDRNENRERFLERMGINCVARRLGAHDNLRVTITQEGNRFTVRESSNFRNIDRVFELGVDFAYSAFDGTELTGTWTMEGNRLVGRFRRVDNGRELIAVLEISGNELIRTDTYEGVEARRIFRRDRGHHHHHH
T8 sequence (P02768 25-609): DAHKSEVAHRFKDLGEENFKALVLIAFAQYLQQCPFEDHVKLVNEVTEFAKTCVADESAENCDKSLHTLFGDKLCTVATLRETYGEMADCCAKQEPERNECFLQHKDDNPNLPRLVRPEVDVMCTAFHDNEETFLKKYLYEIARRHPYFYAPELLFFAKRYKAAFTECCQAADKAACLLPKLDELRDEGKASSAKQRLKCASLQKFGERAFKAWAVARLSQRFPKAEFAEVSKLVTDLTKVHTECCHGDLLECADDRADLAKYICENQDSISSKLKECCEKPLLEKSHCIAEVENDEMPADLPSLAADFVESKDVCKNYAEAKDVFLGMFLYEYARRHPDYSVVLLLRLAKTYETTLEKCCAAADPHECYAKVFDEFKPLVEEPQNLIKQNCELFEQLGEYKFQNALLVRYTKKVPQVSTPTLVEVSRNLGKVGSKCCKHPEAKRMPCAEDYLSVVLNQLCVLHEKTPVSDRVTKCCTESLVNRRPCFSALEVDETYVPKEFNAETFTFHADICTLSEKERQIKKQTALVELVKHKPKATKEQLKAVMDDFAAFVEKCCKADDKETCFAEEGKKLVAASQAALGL

Molecule: CC/C=C\C/C=C\C/C=C\CCCCCCCC(=O)O [Linolenate 18:3 (n-3), Linolenate]
Kd [1]: 3460 nM

Molecule: CCCCC/C=C\C/C=C\CCCCCCCC(=O)O [Linoleate 18:2 (n-6), Linoleate]
Kd [2]: 23 nM | Kd [3]: 40.8 nM | Kd [4]: 6.7 nM | Kd [5]: 25.7 nM | Kd [6]: 6.5 nM | Kd [7]: 105 nM | Kd [8]: 0.8 nM

Molecule: CCCCCCCC/C=C\CCCCCCCC(=O)O [Oleate 18:1 (n-9), Oleate]
Kd [2]: 12.7 nM | Kd [3]: 18.9 nM | Kd [4]: 3.1 nM | Kd [5]: 4.3 nM | Kd [6]: 7.6 nM | Kd [7]: 21.5 nM | Kd [8]: 1.2 nM

B1: L1P1 B4: SEQ 3 mutein: 14I 72W 117W (protein)
chain: AFDGTWKVDRNENIEKFMEKMGINVVKRKLGAHDNLKLTITQEGNKFTVKESSNFRNIDVVFELGVDFAYSWADGTELTGTWTMEGNKLVGKFKRVDNGKELIAVREISGNELIQTWTYEGVEAKRIFKKDRGHHHHHH
modifications: acrylodan label; rat intestinal fatty acid binding protein with substitution of Xaa at one or more of 14, 18, 23, 25, 27, 31, 36, 38, 55, 60, 72, 73, 74, 78, 102, 104, 106, 115 and 117; rat intestinal fatty acid binding protein in which one amino acid residue may be substituted with cysteine or lysine; optional 6His tag at N terminus; Xaa=any amino acid
Kd [9, 10]: 711 nM | Is [9, 11]: 0

B2: L1P1 C 12: SEQ 3 mutein: 38I 72W 117W (protein)
chain: B1 chain with I14Y, L38I
modifications: acrylodan label; rat intestinal fatty acid binding protein with substitution of Xaa at one or more of 14, 18, 23, 25, 27, 31, 36, 38, 55, 60, 72, 73, 74, 78, 102, 104, 106, 115 and 117; rat intestinal fatty acid binding protein in which one amino acid residue may be substituted with cysteine or lysine; optional 6His tag at N terminus; Xaa=any amino acid
Kd [9, 10]: 35.8 nM | Is [9, 11]: 0.11

Continued, values first:

Kd (human albumin): 20 nM
Molecule: C=CC1=C(C)/C(=C/c2[nH]c(Cc3[nH]c(/C=C4\NC(=O)C(C)=C4C=C)c(C)c3CCC(=O)O)c(CCC(=O)O)c2C)NC1=O [Bilirubin, unconjugated bilirubin IXα]

Kd [9, 10]: 309 nM | Is [9, 11]: 0.04
B3: L1P14 D6: SEQ 3 mutein: 14M 72V 117W (protein)
chain: B1 chain with I14M, W72V
modifications: acrylodan label; rat intestinal fatty acid binding protein with substitution of Xaa at one or more of 14, 18, 23, 25, 27, 31, 36, 38, 55, 60, 72, 73, 74, 78, 102, 104, 106, 115 and 117; rat intestinal fatty acid binding protein in which one amino acid residue may be substituted with cysteine or lysine; optional 6His tag at N terminus; Xaa=any amino acid

Is [9, 12]: 0.19 | Kd [9, 12]: 9500 nM | Is [9, 13]: 0.61 | Kd [9, 13]: 700 nM | Is [9, 14]: 0.67 | Kd [9, 14]: 239 nM | Is [9, 15]: 0.14 | Kd [9, 15]: 80 nM
B4: BL22P1B11 - 25K: SEQ 3 mutein: MGI - KR14 - 14R 18L 25K 27A 38V 60R 73F 106L 115R 117D (protein)
chain: AFDGTWKVDRNENREKFLEKMGINKVARKLGAHDNLKVTITQEGNKFTVKESSNFRNIDRVFELGVDFAYSAFDGTELTGTWTMEGNKLVGKFKRVDNGKELIAVLEISGNELIRTDTYEGVEAKRIFKKDRGHHHHHH
modifications: BL22P1B11; Tyr->Arg; Met-> Leu; Val-> Cys; Lys-> Ala; Leu-> Val; Val-> Arg; Leu-> Ala; Ala-> Phe; Arg-> Leu; Gln-> Arg; Tyr -> Asp; 6His tag at N terminus
